Source: publication PMC10066322 (Scientific Reports, 2023)

Assays:
Hela cells = assay: Cell death assay (cell counting, with or without doxorubicin); assay type: cell-based, human
Description: Previous work has shown that PARN inhibition leads to cell death in combination with DNA damaging agent, which has been interpreted to occur through the induction of p53[11].
Cell counting were done 2 days post-treatment. For doxorubicin (EMD Millipore, 504042) treatment, doxorubicin (1 μM) was added to cells. Cells were collected and counted at 0 h and 24 h after treatment.

PARN level in Hela cells = assay: Western blot of PARN protein level in Hela cells; assay type: cell-based, human; conditions: 50 μM, 2 days
From the text: The blot was blotted against anti-PARN antibody. (b) Quantification of the changes in PARN levels of western blot using GAPDH as loading controls. siPARN and drug treatments were normalized to scramble siRNA and DMSO controls, respectively. siPARN and drug treatment data were compared to scr and DMSO data, respectively. One-way ANOVA, multiple comparisons test. Average ± SD, N = 3 biological replicates, n = 1. […] (d) Quantification of miR-21-5p levels normalized to U1 RNA. One-way ANOVA, multiple comparisons test, average ± SD, N = 3 biological replicates, n = 1. […] One-way ANOVA, multiple comparisons test, average ± SD, N = 3 biological replicates, n = 2. (f) Representative northern blot showing that miR-21-5p levels decreased in TH11, TH15, and TH16 treatments. […] (g) Quantification of miR-21-5p levels normalized to U1 RNA. […] For nothern blot and RT-qPCR quantifications, Scr and DMSO controls were independently set to 1 and used as control for siPARN and drug treatments, respectively. *P < 0.05, **P < 0.005, ***P < 0.001, ****P < 0.0001, n.s. was not indicated. […]
Cells was lysed with 2× lysis buffer (2.5% SDS, 4% BME, protease inhibitor) and was separated on a 4–12% Bis–Tris NuPage gel (ThermoFisher) and transferred to protran membrane (Amer- sham). […] Blot was quantified using ImageJ and normalized to GAPDH levels (GAPDH antibody (0411) HRP) (Santa Cruz Biotechnology, sc-47724 HRP).

## Cc1ccc(Nc2ncc3c(n2)N(C)C(=O)N(c2cc(NC(=O)c4cccc(C(F)(F)F)c4)ccc2C)C3)cn1 [GNF-7]
Hela cells; Hela cells treated 2 days, then doxorubicin 1 μM for 24 h
  sensitivity of cells to doxorubicin (cell death): increase the sensitivity
Hela cells; Hela cells, 25 μM, 2 days
  cell growth compared to DMSO treatment: growth defects
PARN level in Hela cells
  PARN level (western blot): do not affect PARN level
